The nature of series [1]: In vivo PK study in male Sprague Dawley rats. The conditions noted are these: for clearance / half-life / Vd / bioavailability / C0 / AUC(0-inf) / AUC(0-t) / Cmax / Tmax: male, Sprague Dawley, plasma; for Rat CL (% Qh) / clearance / half-life / Vd / bioavailability / C0 / AUC(0-inf) / AUC(0-t) / Cmax / Tmax: rat; for clearance: read-out: Rat CL; for Vd: read-out: Rat Vss; for AUC(0-inf): read-out: AUCInf Mean; for AUC(0-t): read-out: AUCLast Mean. On the procedure:
The studies were conducted in male Sprague Dawley rats, three rats per group, or male CD1 mice, three mice per group. Compounds were dosed 1.0 mg/Kg i.v. (vehicle ethanol: % PEG400 in deionized water, in proportions suitable for dosing a clear solution) and 3.0 mg/kg or 10 mg/kg p.o. (vehicle: 1% methyl cellulose: 1,500 cP in DI water (w/v)). A11 animals had free access to food and water. Rat i.v. PK time points: Plasma: 0.083, 0.25, 0.5, 1, 2, 4, 8 and 24 h; Rat p.o. PK time points: Plasma: 0.25, 0.5, 1, 2, 4, 8 and 24 h. Mouse i.v. PK time points: Plasma: 0.083, 0.25, 0.5, 1, 2, 4, 8, 24, and 48 h; Mouse p.o. PK time points: Plasma: 0.25, 0.5, 1, 2, 4, 8, 24, and 48 h. Concentrations of compound in the plasma samples were analyzed using a LC-MS/MS method. WinNonlin (Phoenix™, version 6.1) or other similar software was used for pharmacokinetic calculations.

Series [2] in a line: Plasma Protein Binding with Ultracentrifugation Method, rat. The conditions noted are these: for fraction unbound at 30 min, 1 μM: rat plasma, read-out: Rat plasma protein binding (% bound); for fraction unbound at 5.5 h, 1 μM: rat, plasma, read-out: Plasma Protein Binding PPB (r) % (converted). It counts as in vitro ADME. The method, then: The frozen plasma (stored at −80° C.) was thawed in a 37° C. water bath, followed by centrifugation at 3,220 g for 10 minutes to remove clots. The supernatant was removed into a new tube as the spun plasma. The spun plasma was pre-warmed in a 37° C. water bath for 10 minutes. The stock solutions of test compounds were diluted to 200 μM in DMSO, and then spiked into the plasma. Duplicate samples were prepared. The final concentration of compound was 1.0 μM. The final concentration of organic solvent was 0.5%. Warfarin was used as positive control in the assay. 1.0 mL of the spiked plasma was transferred to a new balance ultracentrifuge tube. Samples were incubated at 37° C., 5% CO2 for 30 minutes. After incubation, the balance ultracentrifuge tubes were centrifuged at 600,000 g for 5.5 hours at 37° C. After centrifugation, 50 μL solution was removed from the center of the ultracentrifuge tubes as the post-ultracentrifugation samples, followed by the addition of 50 μL blank plasma and 400 μL quench solution (acetonitrile containing internal standards (IS, 100 nM Alprazolam, 500 nM Labetalol and 2 μM Ketoprofen)) to precipitate protein and release compounds. Samples were vortexed for 2 minutes, followed by centrifugation at 20,000 g for 15 minutes at room temperature. The supernatant was diluted with ultrapure water and then used for LC-MS/MS analysis. Stability samples was prepared by transferring 50 μL of the spiked plasma to 0.6 mL tubes and incubated at 37° C., 5% CO2 for 0.5 and 6 hours. After incubation, 50 μL PBS (100 mM, pH7.4) and 400 μL quench solution were added to the stability samples. And then stability samples were treated the same way as the post-ultracentrifugation samples. The supernatant was diluted with ultrapure water and then used for LC-MS/MS analysis. 0.5 hour time point samples were also used as no-spun controls. Time 0 samples were prepared by transferring 50 μL spiked plasma to 0.6 mL tubes containing 50 μL PBS, followed by the addition of 400 μL quench solution to precipitate protein and release compound. And then these samples were treated the same way as the post-ultracentrifugation samples. The supernatant was diluted with ultrapure water and then used for LC-MS/MS analysis.
Data Analysis: All calculations were carried out using Microsoft Excel. The concentrations of test compound in plasma samples and post-ultracentrifugation plasma was determined from peak areas. The percentages of test compound bound was calculated as follows: […]
“+++” indicates a % bound value less than 50, “++” indicates a % bound value between 50 and 75, and “+” indicates a % bound value above 75.

Series [3] in a line: CT26 syngeneic colon cancer model, AhR antagonist with PD-L1 antibody. The class given is in vivo. The conditions noted are these: female, Balb/c, mouse, in vivo, po; CT26 model, dose 10 mg/kg.
For series [4], the system named is CT26 cells implanted subcutaneously into Balb/c mice. Described as above. The class given is in vivo. As to conditions: for Cmin: CT26 model, dose 10 mg/kg.
Series [5] is described as follows: Liver Microsome Stability Assay, human. The class given is in vitro ADME. As to conditions: human liver microsomes. The method, then: Two separate experiments were performed as follows.
With Cofactors (NADPH): 25 μL of 10 mM NADPH was added to the incubations. The final concentrations of microsomes and NADPH were 0.5 mg/mL and 1 mM, respectively. The final concentration of microsomes was 0.5 mg/mL. The mixture was pre-warmed at 37° C. for 10 minutes. The reaction was started with the addition of 2.5 μL of 100 μM control compound or test compound solutions. Verapamil was used as positive control in this study. The final concentration of test compound or control compound was 1 μM. The incubation solution was incubated in water batch at 37° C. Aliquots of 25 μL were taken from the reaction solution at 0.5, 5, 15, 30 and 60 minutes. The reaction was stopped by the addition of 5 volumes of cold acetonitrile with IS (200 nM caffeine and 100 nM tolbutamide). Samples were centrifuged at 3, 220 g for 40 minutes. Aliquot of 100 μL of the supernatant was mixed with 100 μL of ultra-pure H2O and then used for LC-MS/MS analysis.
Data Analysis: All calculations were carried out using Microsoft Excel. Peak areas were determined from extracted ion chromatograms. The slope value, k, was determined by linear regression of the natural logarithm of the remaining percentage of the parent drug vs. incubation time curve.
The in vitro half-life (in vitro t1/2) was determined from the slope value:
Conversion of the in vitro t1/2 (min) into the in vitro intrinsic clearance (in vitro CLint, in μL/min/mg protein) was done using the following equation (mean of duplicate determinations): […]
The calculations of Scaled-up CLint(mL/min/kg), Predicted CLH (mL/min/kg) and EH were done using the following equation:
Scaled-up CLint=(0.693/t1/2)×(1/(microsomal protein concentration(0.5 mg/mL)))×Scaling Factors;Predicted CLH=(QH×Scaled-up CLint×fub)/(QH+Scaled-up CLint×fub);EH=Predicted CLH/QH
where QH is the hepatic blood flow (mL/min/kg) (Table 32), • fub is the fraction of unbound drug in plasma which is assumed to be 1.
“+++” indicates a Clint value less than 10 mL/min/Kg, […] indicates a Clint between 10 and 20 mL/min/Kg, and “+” indicates a Clint above 20 mL/min/Kg.
(Liver microsomes are a subcellular fraction often used to study metabolism.)

Where [6] appears, read: intravenous, 1 mg/kg, in vivo DMPK profile.
[7] abbreviates: intravenous, 1 mg/kg, in vivo DMPK profile, read-out: Rat T1/2 (converted).
The mark [8] stands for this setting: oral, 3 mg/kg, in vivo DMPK profile, read-out: Rat % F.
Setting [9] is: rats, 1 mg/kg IV, read-out: T1/2 Mean (converted).
Where [10] appears, read: rats, PO, dosage of 3 mg/kg, read-out: Bioavailability.

Where two headings read alike, the source gives them in different places.

In general, Cmax refers to the peak of the concentration-time curve. What is called Tmax is the time from dosing to the highest level.

`C[C@@H](CO)n1cnc2c(-c3cccnc3)nc(-c3ccc(C(F)(F)F)cn3)cc2c1=O` [Compound 46, (S)-3-(1-hydroxypropan-2-yl)-8-(pyridin-3-yl)-6-(5-(trifluoromethyl)pyridin-2-yl)pyrido[3,4-d]pyrimidin-4(3H)-one]: the “Rat CL (% Qh)” value in series [1] (in vivo DMPK profile) was found to be 9 % Qh. In series [1] (setting [6]), the clearance was 6.7 mL/min/kg and the Vd was 3.1 L/kg. Also, in series [1] (setting [7]), the half-life was 5.6 h. Also, the bioavailability in series [1] (setting [8]) was 89%. Moreover, in series [1] (rats, 1 mg/kg IV), the C0 was found to be 301 ng/mL, the AUC(0-inf) turned out to be 2490 ng·h/mL, the AUC(0-t) worked out at 2350 ng·h/mL and the “CI Mean” value stood at 112 mL/min/kg. Besides, in series [1] (setting [9]), the half-life was 5.65 h. Also, in series [1] (rats, PO, dosage of 3 mg/kg), the Cmax came out at 462 ng/mL, the Tmax was 3.33 h and the AUC(0-t) turned out to be 6280 ng·h/mL. Moreover, in series [1] (setting [10]), the bioavailability turned out to be 89%. Moreover, in series [1] (rats, PO, dosage of 3 mg/kg, read-out: T1/2 Mean (converted)), the half-life is 5.73 h. Further, in series [2], the fraction unbound at 30 min, 1 μM is less than 0.25 and the fraction unbound at 5.5 h, 1 μM was 0.102. This compound also displayed a Cmax in series [3] of 17.3 µM. For the same compound, the Cmin in series [4] was 12,350 nm. Besides, the “tumor volume, coadministration with PD-L1 antibody” value (“tumor volume, coadministration” below) in series [4] (FIG. 12, 10 mg/kg p.o. once a day over 14 days with anti-PD-L1 antibody 10 mg/kg IP every 3 days) was “reduction in tumor volume”. Moreover, in series [4] (FIG. 13, 10 mg/kg p.o. once a day over 14 days with anti-PD-L1 antibody 10 mg/kg IP every 3 days), the “tumor weight upon termination of study, coadministration with PD-L1 antibody” value (from here on “tumor weight upon termination of study”) is “reduction in tumor weight”.

As for `CC(C)(O)Cn1cnc2c(-c3cccnc3)nc(-c3ccc(C(F)(F)F)nc3)cc2c1=O` [Compound 9], the “Rat CL (% Qh)” value in series [1] (in vivo DMPK profile) was found to be 5.8 % Qh. The clearance in series [1] (setting [6]) came to 4.1 mL/min/kg. In series [1] (setting [7]), the half-life was 5.4 h. For the same compound, the Vd in series [1] (setting [6]) was 1.75 L/kg. For the same compound, the bioavailability in series [1] (setting [8]) stood at 77%. Further, the fraction unbound at 30 min, 1 μM in series [2] was less than 0.25. The fraction unbound at 5.5 h, 1 μM in series [2] was 0.098. Moreover, the highest level in series [3] (Cmax) was 4.96 µM. Moreover, in series [4] (10 mg/kg or 1 mg/kg p.o. once a day over 14 days with anti-PD-L1 antibody 10 mg/kg IP every 3 days), the “tumor volume and weight, combination with PD-L1 compared to PD-L1 alone (overall)” value was “decreases tumor volume and weight compared to PD-L1 alone”. In series [4], this compound registered a Cmin of 849 nm. Further, the “tumor volume, coadministration” value in series [4] (FIG. 8, 10 mg/kg p.o. once a day over 14 days with anti-PD-L1 antibody 10 mg/kg IP every 3 days, p=0.0070 (Mann-Whitney)) was “reduction in tumor volume”; in series [4] (FIG. 10, 1 mg/kg p.o. once a day over 14 days with anti-PD-L1 antibody 10 mg/kg IP every 3 days, p=0.0039 (Kruskal Wallis, Dunn's)) it was “reduction in tumor volume”. The “tumor weight upon termination of study” value in series [4] (FIG. 9, p.o. once a day over 14 days with anti-PD-L1 antibody 10 mg/kg IP every 3 days, p=0.0114 (Mann-Whitney)) is “reduction in tumor weight”; in series [4] (FIG. 11, p.o. once a day over 14 days with anti-PD-L1 antibody 10 mg/kg IP every 3 days, p=0.0029 (Kruskal Wallis, Dunn's)), “reduction in tumor weight”.

Take `C[C@@H](CO)n1cnc2c(-c3cccc(F)c3)nc(-c3ccc(Cl)cc3)cc2c1=O` [Compound 7]: in series [1] (rats, 1 mg/kg IV), the C0 is 212 ng/mL, the AUC(0-inf) amounted to 1000 ng·h/mL, the AUC(0-t) was determined as 659 ng·h/mL and the “CI Mean” value worked out at 295 mL/min/kg. Also, in series [1] (setting [9]), the half-life was 5.31 h. Further, in series [1] (rats, PO, dosage of 3 mg/kg), the Cmax was 224 ng/mL, the Tmax is 3.33 h and the AUC(0-t) was 2400 ng·h/mL. For the same compound, the bioavailability in series [1] (setting [10]) was 110%. Also, in series [1] (rats, PO, dosage of 10 mg/kg), the Cmax came to 610 ng/mL, the Tmax came out at 3.33 h and the AUC(0-t) is 7820 ng·h/mL. Further, the bioavailability in series [1] (rats, PO, dosage of 10 mg/kg, read-out: Bioavailability) is 105%. Further, in series [5], the “Human liver microsome clearance” value is given as “+++ (“+++” indicates a Clint value less than 10 mL/min/Kg)”. Further, in series [2], the fraction unbound at 30 min, 1 μM is less than 0.25. The “tumor volume, coadministration” value in series [4] (FIG. 2, 3 mg/kg p.o. once a day over 14 days with anti-PD-L1 antibody 10 mg/kg IP every 3 days, p=0.0039 (Mann-Whitney)) is recorded as “reduction in tumor volume”. In addition, the “tumor weight upon termination of study” value in series [4] (FIG. 3, 3 mg/kg p.o. once a day over 14 days with anti-PD-L1 antibody 10 mg/kg IP every 3 days, p=0.041 (Mann-Whitney)) is given as “reduction in tumor weight”.

The values are drawn from patent US20230295152A1 (SENDA BIOSCIENCES, INC., priority 2019, published 2023).
